From US8334315B2, “Substituted aromatic carboxamide and urea derivatives as vanilloid receptor ligands” (Gruenenthal GmbH, priority 2009, dated 2012)

Assays:
[1] = biological target: T1, rat-species vanilloid receptor 1 (VR1/TRPV1) (Rattus norvegicus, UniProt O35433); test: Functional testing on the vanilloid receptor 1, FLIPR Ca2+ influx in rat DRG cells, capsaicin; type: cell-based; set-up: key to Ki (rat) [nM] Cap: agonist / partial agonist / no effect: AG=agonist; pAG=partial agonist; NE=no effect; settings: for Ki: capsaicin (Cap), includes values given in brackets after pAG
T1 construct: endogenous in cells; host or cells: primary cells dissociated from rat dorsal root ganglia (DRG), cultured 2-3 days with NGF
T1 sequence (O35433 whole entry): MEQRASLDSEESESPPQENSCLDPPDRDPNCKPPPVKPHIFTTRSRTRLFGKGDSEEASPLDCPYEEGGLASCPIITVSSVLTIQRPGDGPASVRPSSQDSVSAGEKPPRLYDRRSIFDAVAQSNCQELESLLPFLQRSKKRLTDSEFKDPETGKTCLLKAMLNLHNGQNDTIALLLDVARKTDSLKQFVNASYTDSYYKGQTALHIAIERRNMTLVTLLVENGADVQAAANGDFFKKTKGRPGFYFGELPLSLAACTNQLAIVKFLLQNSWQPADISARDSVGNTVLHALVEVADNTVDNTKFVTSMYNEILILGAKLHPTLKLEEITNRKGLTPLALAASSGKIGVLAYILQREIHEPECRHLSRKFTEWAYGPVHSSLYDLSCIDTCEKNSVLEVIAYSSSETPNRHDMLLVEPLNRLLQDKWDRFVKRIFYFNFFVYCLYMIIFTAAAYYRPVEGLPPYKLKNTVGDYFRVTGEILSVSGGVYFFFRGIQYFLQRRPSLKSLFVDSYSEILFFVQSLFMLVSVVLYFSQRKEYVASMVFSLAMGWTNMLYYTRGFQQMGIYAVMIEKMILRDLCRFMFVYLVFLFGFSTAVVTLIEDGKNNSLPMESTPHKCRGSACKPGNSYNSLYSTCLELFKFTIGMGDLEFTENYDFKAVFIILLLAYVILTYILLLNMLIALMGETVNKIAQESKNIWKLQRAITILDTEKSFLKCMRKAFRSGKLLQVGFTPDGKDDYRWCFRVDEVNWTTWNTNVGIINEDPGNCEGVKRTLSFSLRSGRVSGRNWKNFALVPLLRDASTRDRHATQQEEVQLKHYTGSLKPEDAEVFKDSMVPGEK

hVR1 = biological target: T2, hVR1 (Homo sapiens, UniProt Q8NER1); test: Functional test on VR1, FLIPR Ca2+ influx in transfected CHO K1 cells, capsaicin; type: cell-based, human being; set-up: key to Ki (human being) [nM] Cap: agonist / partial agonist / no effect: AG=agonist; pAG=partial agonist; NE=no effect; settings: for Ki: capsaicin (Cap), includes values given in brackets after pAG, read-out: Ki (human being) [nM] Cap
T2 construct: expressed in transfected cells; host or cells: CHO K1 cells (ECACC), stably transfected
T2 sequence (Q8NER1 whole entry): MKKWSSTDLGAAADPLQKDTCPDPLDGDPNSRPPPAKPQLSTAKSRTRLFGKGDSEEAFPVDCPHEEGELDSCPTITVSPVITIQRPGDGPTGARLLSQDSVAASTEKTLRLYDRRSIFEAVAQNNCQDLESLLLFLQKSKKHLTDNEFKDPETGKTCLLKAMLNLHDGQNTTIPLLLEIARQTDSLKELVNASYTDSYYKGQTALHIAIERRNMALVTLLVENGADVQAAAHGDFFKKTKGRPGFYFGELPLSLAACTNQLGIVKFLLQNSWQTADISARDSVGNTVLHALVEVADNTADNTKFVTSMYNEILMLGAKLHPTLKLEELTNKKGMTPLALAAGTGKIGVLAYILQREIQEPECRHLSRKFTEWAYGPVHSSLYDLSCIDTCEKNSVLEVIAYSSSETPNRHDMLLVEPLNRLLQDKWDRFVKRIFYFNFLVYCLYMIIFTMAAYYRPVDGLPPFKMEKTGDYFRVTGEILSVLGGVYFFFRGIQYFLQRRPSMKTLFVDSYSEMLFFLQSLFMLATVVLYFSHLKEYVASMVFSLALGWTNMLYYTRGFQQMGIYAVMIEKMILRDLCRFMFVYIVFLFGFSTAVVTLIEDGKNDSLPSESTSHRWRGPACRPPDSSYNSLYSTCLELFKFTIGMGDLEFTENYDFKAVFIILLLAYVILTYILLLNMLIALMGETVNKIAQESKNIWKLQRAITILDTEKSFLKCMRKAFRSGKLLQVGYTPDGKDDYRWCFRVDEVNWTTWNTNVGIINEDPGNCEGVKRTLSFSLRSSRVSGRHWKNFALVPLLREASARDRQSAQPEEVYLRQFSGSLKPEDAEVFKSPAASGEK

| Ki (rat) [nM] Cap: agonist / partial agonist / no effect [1] | Ki [1] | Ki (human being) [nM] Cap: agonist / partial agonist / no effect (hVR1) | Ki (hVR1) | SMILES |
| --- | --- | --- | --- | --- |
| pAG | 2.5 nM | pAG | 1.3 nM | CC(C(=O)NCc1cc(C(F)(F)F)nn1-c1cccc(Cl)c1)c1ccc2cc(O)ccc2c1 (stereo not drawn) [Example 50, N-((1-(3-chlorophenyl)-3-(trifluoromethyl)-1H-pyrazol-5-yl)methyl)-2-(6-hydroxynaphthalen-2-yl)propanamide] |
|  | 1 nM |  | 0.2 nM | CC(C(=O)NCc1cc(C(F)(F)F)nn1-c1cccc(Cl)c1)c1cccc2cnccc12 (stereo not drawn) [Example 64, N-((1-(3-chlorophenyl)-3-(trifluoromethyl)-1H-pyrazol-5-yl)methyl)-2-(isoquinolin-5-yl)propanamide] |
| pAG | 14.7 nM |  | 15 nM | Cc1nc2ccc(C(C)C(=O)NCc3cc(C(F)(F)F)nn3-c3cccc(Cl)c3)cc2s1 (stereo not drawn) [Example 45, N-((1-(3-chlorophenyl)-3-(trifluoromethyl)-1H-pyrazol-5-yl)methyl)-2-(2-methylbenzo[d]thiazol-6-yl)propanamide] |
|  | 15.8 nM |  | 10.8 nM | CC(C)(C)c1cc(CNC(=O)Nc2ccc3c(c2)CCC3)n(-c2cccc(Cl)c2)n1 [Example 79, 1-((3-tert-butyl-1-(3-chlorophenyl)-1H-pyrazol-5-yl)methyl)-3-(2,3-dihydro-1H-inden-5-yl)urea] |
| pAG | 5.5 nM | pAG | 6.4 nM | CC(C(=O)NCc1cc(C(C)(C)C)nn1-c1cccc(Cl)c1)c1ccc2c(c1)OCCO2 (stereo not drawn) [Example 13, N-((3-tert-butyl-1-(3-chlorophenyl)-1H-pyrazol-5-yl)methyl)-2-(2,3-dihydrobenzo[b][1,4]dioxin-6-yl)propanamide] |
| AG |  | pAG | 3.5 nM | CC(C(=O)NCc1cc(C(C)(C)C)nn1-c1cccc(Cl)c1)c1ccc2c(c1)OCO2 (stereo not drawn) [Example 11, 2-(benzo[d][1,3]dioxol-5-yl)-N-((3-tert-butyl-1-(3-chlorophenyl)-1H-pyrazol-5-yl)methyl)propanamide] |
